Measurements from ChEMBL document CHEMBL4613218, “Synthesis, in vitro and in vivo biological evaluation of novel graveolinine derivatives as potential anti-Alzheimer agents” (Bioorg Med Chem, 2020).
The source made the active and inactive calls. The rule behind the calls is not given here.

Legend:
[1] = Selectivity index, ratio of IC50 for electric eel AChE to IC50 for equine serum BuChE
[2] = system: PC-12; experiment: Cytotoxicity against rat PC12 cells assessed as growth inhibition after 48 hrs by MTT assay; assay type: cell-based; conditions: PC-12, 48 h
[3] = system: HepG2; experiment: Cytotoxicity against human HepG2 cells assessed as growth inhibition after 48 hrs by MTT assay; assay type: cell-based; conditions: HepG2, 48 h
[4] = target: Amyloid-beta precursor protein (Homo sapiens) (UniProt P05067); experiment: Inhibition of self-induced human amyloid beta (1 to 42) peptide aggregation at 20 uM measured after 48 hrs by ThT fluorescence assay relative to control
Sequence of Amyloid-beta precursor protein (Homo sapiens) (P05067 whole entry): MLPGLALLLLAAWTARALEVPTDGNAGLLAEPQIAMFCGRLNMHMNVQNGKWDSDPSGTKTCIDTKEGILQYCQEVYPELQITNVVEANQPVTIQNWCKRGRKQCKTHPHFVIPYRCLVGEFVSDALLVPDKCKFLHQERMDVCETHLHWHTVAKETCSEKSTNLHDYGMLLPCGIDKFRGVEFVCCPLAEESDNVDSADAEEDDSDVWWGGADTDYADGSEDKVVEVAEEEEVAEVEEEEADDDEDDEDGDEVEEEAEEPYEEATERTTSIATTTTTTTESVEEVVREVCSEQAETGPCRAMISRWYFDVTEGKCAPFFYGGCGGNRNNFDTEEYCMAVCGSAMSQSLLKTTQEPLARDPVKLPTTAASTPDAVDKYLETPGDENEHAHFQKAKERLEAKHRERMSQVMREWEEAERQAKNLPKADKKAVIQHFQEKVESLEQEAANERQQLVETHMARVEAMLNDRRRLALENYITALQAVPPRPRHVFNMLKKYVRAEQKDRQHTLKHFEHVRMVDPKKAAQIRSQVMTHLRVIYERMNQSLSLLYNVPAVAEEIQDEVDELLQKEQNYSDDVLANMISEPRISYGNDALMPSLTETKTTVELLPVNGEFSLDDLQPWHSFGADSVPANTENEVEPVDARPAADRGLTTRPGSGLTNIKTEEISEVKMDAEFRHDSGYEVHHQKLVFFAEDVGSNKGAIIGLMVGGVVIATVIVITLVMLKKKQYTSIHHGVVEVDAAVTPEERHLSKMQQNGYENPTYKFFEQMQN

[5] = Cytotoxicity against human HepG2 cells assessed as inhibition of cell viability at 10 uM after 48 hrs by MTT assay relative to control; assay type: cell-based; conditions: read-out: INH
[6] = Cytotoxicity against rat PC12 cells assessed as inhibition of cell viability at 10 uM after 48 hrs by MTT assay relative to control; assay type: cell-based, PC-12; conditions: read-out: INH
[7] = target: Acetylcholinesterase (Electrophorus electricus, UniProt O42275); experiment: Inhibition of electric eel AChE using acetylthiocholine chloride as substrate preincubated for 15 mins followed by substrate addition by Ellman's method
Sequence of Acetylcholinesterase (O42275 whole entry): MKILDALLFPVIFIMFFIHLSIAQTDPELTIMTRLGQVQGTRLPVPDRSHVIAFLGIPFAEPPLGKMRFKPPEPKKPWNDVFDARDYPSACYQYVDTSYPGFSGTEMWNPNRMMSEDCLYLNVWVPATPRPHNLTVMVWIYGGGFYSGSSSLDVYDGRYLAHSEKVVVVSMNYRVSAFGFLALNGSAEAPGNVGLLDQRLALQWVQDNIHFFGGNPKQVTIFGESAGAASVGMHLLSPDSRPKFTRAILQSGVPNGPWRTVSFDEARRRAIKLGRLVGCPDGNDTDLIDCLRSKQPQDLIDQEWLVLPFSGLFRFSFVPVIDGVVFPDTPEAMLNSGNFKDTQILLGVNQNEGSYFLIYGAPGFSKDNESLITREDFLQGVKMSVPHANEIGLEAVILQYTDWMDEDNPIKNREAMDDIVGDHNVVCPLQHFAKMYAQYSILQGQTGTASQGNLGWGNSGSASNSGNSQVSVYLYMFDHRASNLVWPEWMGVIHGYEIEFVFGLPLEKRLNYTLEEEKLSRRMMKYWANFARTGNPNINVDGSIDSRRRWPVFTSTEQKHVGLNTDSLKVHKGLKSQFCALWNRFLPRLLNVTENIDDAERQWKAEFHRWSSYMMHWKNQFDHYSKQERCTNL

[8] = target: Cholinesterase (Equus caballus, UniProt P81908); experiment: Inhibition of equine serum BuChE using butyrylthiocholine chloride as substrate preincubated for 15 mins followed by substrate addition by Ellman's method
Sequence of Cholinesterase (P81908 whole entry): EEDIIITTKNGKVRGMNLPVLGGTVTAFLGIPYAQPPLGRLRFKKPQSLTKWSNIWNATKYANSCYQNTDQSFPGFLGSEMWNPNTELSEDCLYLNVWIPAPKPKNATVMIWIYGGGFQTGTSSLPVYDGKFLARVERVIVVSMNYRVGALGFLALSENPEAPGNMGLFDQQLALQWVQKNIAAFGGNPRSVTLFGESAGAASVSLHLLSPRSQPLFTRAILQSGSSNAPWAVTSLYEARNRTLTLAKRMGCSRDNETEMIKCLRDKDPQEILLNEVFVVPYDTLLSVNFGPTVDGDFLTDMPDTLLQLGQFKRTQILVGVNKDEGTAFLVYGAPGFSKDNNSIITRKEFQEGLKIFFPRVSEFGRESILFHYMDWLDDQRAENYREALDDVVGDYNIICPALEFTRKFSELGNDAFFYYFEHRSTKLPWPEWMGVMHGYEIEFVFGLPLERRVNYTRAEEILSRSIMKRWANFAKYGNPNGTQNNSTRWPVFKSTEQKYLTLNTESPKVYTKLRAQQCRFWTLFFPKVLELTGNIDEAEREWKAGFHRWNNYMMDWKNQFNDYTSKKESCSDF

[9] = target: Amyloid-beta precursor protein (Homo sapiens) (UniProt P05067); experiment: Inhibition of self-induced human amyloid beta (1 to 42) peptide aggregation assessed as reduction in number of amyloid beta aggregates at 20 uM measured after 48 hrs by TEM analysis
[10] = (§1) Toxicity in scopolamine-induced cognition deficit ICR mouse model assessed as effect on swimming speed at 20 umol/kg, po treated 30 mins prior to scopolamine challenge and measured at 30 mins post-scopolamine challenge on day 15 of probe trial by Morris water maze test; assay type: organism-based; conditions: in vivo, 0.5 h
[11] = target: Acetylcholinesterase (Torpedo californica) (UniProt P04058); experiment: Non-competitive inhibition of pacific electric ray AChE pre-incubated with enzyme for 15 mins followed by acetylthiocholine chloride substrate addition by spectrophotometric method based Lineweaver-Burk plot analysis; conditions: Tetronarce californica
Sequence of Acetylcholinesterase (Torpedo californica) (P04058 22-564 limits assumed): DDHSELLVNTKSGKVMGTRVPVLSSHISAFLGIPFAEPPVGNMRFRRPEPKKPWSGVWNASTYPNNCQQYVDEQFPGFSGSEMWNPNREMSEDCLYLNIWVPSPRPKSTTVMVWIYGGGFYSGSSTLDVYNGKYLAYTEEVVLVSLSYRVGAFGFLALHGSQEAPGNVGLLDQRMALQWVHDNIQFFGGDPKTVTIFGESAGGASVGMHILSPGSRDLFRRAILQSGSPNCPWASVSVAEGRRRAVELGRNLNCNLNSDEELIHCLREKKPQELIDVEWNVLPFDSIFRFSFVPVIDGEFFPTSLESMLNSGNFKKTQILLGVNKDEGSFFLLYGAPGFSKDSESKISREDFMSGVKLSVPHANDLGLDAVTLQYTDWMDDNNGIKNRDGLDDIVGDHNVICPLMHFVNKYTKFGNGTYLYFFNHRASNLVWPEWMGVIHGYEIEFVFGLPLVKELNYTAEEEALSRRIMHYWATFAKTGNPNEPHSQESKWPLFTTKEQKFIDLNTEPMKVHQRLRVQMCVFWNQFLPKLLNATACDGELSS

[12] = Toxicity in scopolamine-induced cognition deficit ICR mouse model assessed as effect on total distance travelled at 20 umol/kg, po treated 30 mins prior to scopolamine challenge and measured at 30 mins post-scopolamine challenge on day 15 of probe trial by Morris water maze test; assay type: organism-based; conditions: in vivo, 0.5 h
[13] = system: Mus musculus; experiment: as §1, with “Antialzheimer activity against” for “Toxicity in”, “increase in number of platform crossings” for “effect on swimming speed”; assay type: functional, organism-based
[14] = system: Mus musculus; experiment: Antialzheimer activity against scopolamine-induced cognition impairment ICR mouse model assessed as mean escape latency time at 20 umol/kg, po treated 30 mins prior to scopolamine challenge and measured at 30 mins post-scopolamine challenge for 4 days of training trial sessions by Morris water maze test (reference value: 59.8 to 62.2 secs); assay type: functional
[15] = system: Mus musculus; experiment: as §1, with “Antialzheimer activity against” for “Toxicity in”, “impairment” for “deficit”, “increase in path length in target quadrant” for “effect on swimming speed”; assay type: functional, organism-based
[16] = system: Mus musculus; experiment: Antialzheimer activity against scopolamine-induced cognition impairment ICR mouse model assessed as increase in swimming time in target quadrant at 20 umol/kg, po treated 30 mins prior to scopolamine challenge and measured at 30 mins post-scopolamine challenge on day 15 of probe trial by water maze test; assay type: functional, organism-based

Compound | Ratio IC50 [1] | IC50 [2] [µM] | IC50 [3] [µM] | inhibition [4] [%] | cytotoxicity at 48 h, 10 µM [5] [%] | cytotoxicity at 48 h, 10 µM [6] [%] | IC50 [7] [µM] | IC50 [8] [µM] | inhibition [9] | Activity [10] | inhibition [11] | Activity [12] | Activity [13] | Time [14] [s] | Activity [15] | Activity [16]
OCCCCCCNc1cc(-c2ccc3c(c2)OCO3)nc2ccccc12 | 0.67 | > 50 | > 50 | 39.4 | < 5 | < 5 | 4.32 | 6.49 | – | – | – | – | – | – | – | –
CCCCNc1cc(-c2ccc3c(c2)OCO3)nc2ccccc12 | 0.61 | 46.2 | > 50 | 30.6 | 15.4 | 11.2 | 4.8 | 7.85 | – | – | – | – | – | – | – | –
c1ccc2c(N3CCCCC3)cc(-c3ccc4c(c3)OCO4)nc2c1 | > 4.8 | > 50 | > 50 | 48.5 | < 5 | < 5 | > 10 | 2.09 | – | – | – | – | – | – | – | –
OCCCNc1cc(-c2ccccc2)nc2ccccc12 | – | > 50 | > 50 | 36.8 | < 5 | < 5 | > 10 | > 10 | – | – | – | – | – | – | – | –
c1ccc(-c2cc(N3CCCC3)c3ccccc3n2)cc1 | 8.6 | 24.7 | 30.9 | 57.7 | 12.6 | 24.2 | 3.71 | 0.43 | – | – | – | – | – | – | – | –
c1ccc(-c2cc(NCCCN3CCOCC3)c3ccccc3n2)cc1 | > 2.3 | 35.2 | 30.1 | 55.5 | 12.7 | 12.6 | > 10 | 4.44 | – | – | – | – | – | – | – | –
OCCCCCCNc1cc(-c2ccccc2)nc2ccccc12 | 2.1 | > 50 | 44.2 | 29.2 | 12 | < 5 | 6.22 | 2.96 | – | – | – | – | – | – | – | –
OCCCCNc1cc(-c2ccc3c(c2)OCO3)nc2ccccc12 | 0.44 | 34.3 | > 50 | 44.1 | < 5 | 14.7 | 4.26 | 9.78 | – | – | – | – | – | – | – | –
COc1cc(/C=C/C(=O)CC(=O)/C=C/c2ccc(O)c(OC)c2)ccc1O | – | – | – | – | – | – | – | – | Active | – | – | – | – | – | – | –
OCCCCNc1cc(-c2ccccc2)nc2ccccc12 | 2.3 | > 50 | > 50 | 40.7 | < 5 | < 5 | 9.85 | 4.31 | – | – | – | – | – | – | – | –
COc1cc(-c2ccc3c(c2)OCO3)nc2ccccc12 [GRAVEOLININE] | 1.3 | > 50 | > 50 | 26.9 | 8.76 | < 5 | 36.3 | 28.2 | – | – | – | – | – | – | – | –
c1ccc(-c2cc(NCCCN3CCCCC3)c3ccccc3n2)cc1 | > 8.4 | 40.5 | 25.7 | 60.3 | 24.1 | 11.6 | > 10 | 1.19 | – | – | – | – | – | – | – | –
c1ccc2c(N3CCCC3)cc(-c3ccc4c(c3)OCO4)nc2c1 | 4.5 | > 50 | > 50 | 62.5 | < 5 | < 5 | 0.72 | 0.16 | Active | Non-Toxic | Active | Non-Toxic | Active | 48.1 | Active | Active
OCCCNc1cc(-c2ccc3c(c2)OCO3)nc2ccccc12 | < 0.42 | > 50 | > 50 | 36.6 | < 5 | 8.38 | 4.23 | > 10 | – | – | – | – | – | – | – | –
c1ccc2c(NCCCN3CCOCC3)cc(-c3ccc4c(c3)OCO4)nc2c1 | 0.4 | > 50 | 17.7 | 61.6 | < 5 | < 5 | 3.22 | 8.15 | – | – | – | – | – | – | – | –
c1ccc2c(NCCCN3CCCCC3)cc(-c3ccc4c(c3)OCO4)nc2c1 | 3.3 | 7.17 | 9.21 | 65.6 | 43.7 | 71.5 | 4.78 | 1.45 | – | – | – | – | – | – | – | –
